Tests used:
Assay in all cases: SelectScreen kinase panel
Assay type in all cases: biochemical
PRKAA1 = molecular target: T1, PRKAA1 (Homo sapiens, UniProt Q13131)
T1 construct: purchased Invitrogen / ThermoFisher SelectScreen
Experimental: (§1) The ability of NIK to catalyze the hydrolysis of adenosine-5′-triphosphate (ATP) was monitored using the Transcreener ADP (adenosine-5′-diphosphate) assay (Bell Brook Labs, Fitchburg, WI). Purified human NIK kinase domain (a.a. 340–694) (0.5 nM) or mouse NIK kinase domain (a.a. 329–675) (1 nM) derived from a baculovirus-infected insect cell expression system was incubated with test compounds for 0.5–2 h in 50 mM HEPES buffer (pH 7.2) containing 10 mM MgCl2, 2 mM dithiothreitol, 10 μM ATP, 0.01% Triton X-100, 0.1% gamma-globulins from bovine blood, 1% dimethylsulfoxide (DMSO), 7 μg/mL ADP antibody and 5 nM ADP-MR121 633 tracer. Reactions were quenched by the addition of 20 mM EDTA and 0.01% Brij 35. The tracer bound to the antibody was displaced by the ADP generated during the NIK reaction, which caused a decrease in fluorescence polarization that was measured by laser excitation at 633 nm with a Fluorescence Correlation Spectroscopy Plus reader (Evotec AG). Equilibrium dissociation constant (Ki) values for NIK inhibitors are calculated from plots of activity vs. inhibitor concentration using Morrison’s quadratic equation that accounts for the potential of tight binding, and by also applying the conversion factor that accounted for competitive inhibition and the concentration of substrate used in the assay relative to its Michaelis constant (Km). The Ki values with hPKD1 (PKCμ) were determined using the same assay conditions as for NIK. Ki measurements for hKHS1 and hLRRK2, as well as broad kinase selectivity profiling for SMI1, were carried out by Invitrogen using their SelectScreen kinase assay panel (ThermoFisher Scientific, Madison, WI). The vendor offered two types of kinase activity assays, a peptide phosphorylation assay (Z′-LYTE) and an ADP quantitation assay (Adapta), as well as one type of kinase ATP site competitive binding assay (LanthaScreen). See vendor web site for technology and protocol details for each specific kinase assay.
(§2) The average % Inhibition of each kinase is reported (Supplementary Table 1).

AKT1 = molecular target: T2, AKT1 (Homo sapiens, UniProt P31749)
T2 construct: purchased Invitrogen / ThermoFisher SelectScreen
Experimental: as §1, §2

Fgr = molecular target: T3, Fgr (Homo sapiens, UniProt P09769)
T3 construct: purchased Invitrogen / ThermoFisher SelectScreen
Experimental: as §1, §2

p38_alpha = molecular target: T4, p38_alpha (Homo sapiens, UniProt Q16539)
T4 construct: purchased Invitrogen / ThermoFisher SelectScreen
T4 sequence (Q16539 whole entry): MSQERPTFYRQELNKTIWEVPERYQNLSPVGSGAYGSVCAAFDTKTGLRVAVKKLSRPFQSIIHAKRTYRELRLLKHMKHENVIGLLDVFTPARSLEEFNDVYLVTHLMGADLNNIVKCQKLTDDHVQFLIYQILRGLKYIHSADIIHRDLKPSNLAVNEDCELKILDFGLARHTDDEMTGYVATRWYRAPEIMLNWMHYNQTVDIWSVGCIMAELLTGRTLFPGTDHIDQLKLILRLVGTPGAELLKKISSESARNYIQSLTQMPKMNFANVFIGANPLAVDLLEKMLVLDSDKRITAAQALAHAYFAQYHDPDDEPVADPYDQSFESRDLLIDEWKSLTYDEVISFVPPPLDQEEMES
Experimental: as §1, §2

ERK2 = molecular target: T5, ERK2 (Homo sapiens, UniProt P28482)
T5 construct: purchased Invitrogen / ThermoFisher SelectScreen
Experimental: as §1, §2

SPHK1 = molecular target: T6, SPHK1 (Homo sapiens, UniProt Q9NYA1)
T6 construct: purchased Invitrogen / ThermoFisher SelectScreen
Experimental: as §1, §2

DYRK3 = molecular target: T7, DYRK3 (Homo sapiens, UniProt O43781)
T7 construct: purchased Invitrogen / ThermoFisher SelectScreen
Experimental: as §1, §2

MARK1 = molecular target: T8, MARK1 (Homo sapiens, UniProt Q9P0L2)
T8 construct: purchased Invitrogen / ThermoFisher SelectScreen
Experimental: as §1, §2

CamKIV = molecular target: T9, CamKIV (Homo sapiens, UniProt Q16566)
T9 construct: purchased Invitrogen / ThermoFisher SelectScreen
Experimental: as §1, §2

PAK1 = molecular target: T10, PAK1 (Homo sapiens, UniProt Q13153)
T10 construct: purchased Invitrogen / ThermoFisher SelectScreen
Experimental: as §1, §2

PAK3 = molecular target: T11, PAK3 (Homo sapiens, UniProt O75914)
T11 construct: purchased Invitrogen / ThermoFisher SelectScreen
Experimental: as §1, §2

PDK1 = molecular target: T12, PDK1 (Homo sapiens, UniProt O15530)
T12 construct: purchased Invitrogen / ThermoFisher SelectScreen
Experimental: as §1, §2

Syk = molecular target: T13, Syk (Homo sapiens, UniProt P43405)
T13 construct: purchased Invitrogen / ThermoFisher SelectScreen
Experimental: as §1, §2

CDK2/CyclinA = molecular target: T14, CDK2/CyclinA (Homo sapiens, UniProt P24941)
T14 construct: purchased Invitrogen / ThermoFisher SelectScreen
Experimental: as §1, §2

Src = molecular target: T15, Src (Homo sapiens, UniProt P12931)
T15 construct: purchased Invitrogen / ThermoFisher SelectScreen
Experimental: as §1, §2

Lyn = molecular target: T16, Lyn (Homo sapiens, UniProt P07948)
T16 construct: purchased Invitrogen / ThermoFisher SelectScreen
Experimental: as §1, §2

EphB1 = molecular target: T17, EphB1 (Homo sapiens, UniProt P54762)
T17 construct: purchased Invitrogen / ThermoFisher SelectScreen
T17 sequence (P54762 18-984): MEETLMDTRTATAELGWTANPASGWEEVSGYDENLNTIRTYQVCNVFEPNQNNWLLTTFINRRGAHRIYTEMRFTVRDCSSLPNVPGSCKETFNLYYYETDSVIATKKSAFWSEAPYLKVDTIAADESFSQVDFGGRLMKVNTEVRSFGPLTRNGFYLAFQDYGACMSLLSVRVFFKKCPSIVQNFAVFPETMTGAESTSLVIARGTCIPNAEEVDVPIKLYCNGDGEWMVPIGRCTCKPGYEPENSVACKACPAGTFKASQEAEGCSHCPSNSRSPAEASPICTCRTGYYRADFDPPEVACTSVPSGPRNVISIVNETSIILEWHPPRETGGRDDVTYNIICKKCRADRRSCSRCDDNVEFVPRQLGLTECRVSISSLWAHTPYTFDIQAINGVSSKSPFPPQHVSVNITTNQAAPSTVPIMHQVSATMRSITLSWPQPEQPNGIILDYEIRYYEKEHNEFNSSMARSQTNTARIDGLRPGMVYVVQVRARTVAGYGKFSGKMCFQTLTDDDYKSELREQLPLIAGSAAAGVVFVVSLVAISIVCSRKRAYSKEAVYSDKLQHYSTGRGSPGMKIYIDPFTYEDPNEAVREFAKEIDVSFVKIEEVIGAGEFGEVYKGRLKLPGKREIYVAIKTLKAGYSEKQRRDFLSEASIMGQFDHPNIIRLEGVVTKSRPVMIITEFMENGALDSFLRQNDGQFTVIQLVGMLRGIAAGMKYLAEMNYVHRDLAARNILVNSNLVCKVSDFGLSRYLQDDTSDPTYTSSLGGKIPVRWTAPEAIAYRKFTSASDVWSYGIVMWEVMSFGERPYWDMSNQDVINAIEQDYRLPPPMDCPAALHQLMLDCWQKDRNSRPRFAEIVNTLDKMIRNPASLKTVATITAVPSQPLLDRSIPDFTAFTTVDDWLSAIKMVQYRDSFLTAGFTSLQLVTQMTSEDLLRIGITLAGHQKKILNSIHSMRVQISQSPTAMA
Experimental: as §1, §2

Ret = molecular target: T18, Ret (Homo sapiens, UniProt P07949)
T18 construct: purchased Invitrogen / ThermoFisher SelectScreen
Experimental: as §1, §2

TBK1 = molecular target: T19, TBK1 (Homo sapiens, UniProt Q9UHD2)
T19 construct: purchased Invitrogen / ThermoFisher SelectScreen
Experimental: as §1, §2

GRK2 = molecular target: T20, GRK2 (Homo sapiens, UniProt P25098)
T20 construct: purchased Invitrogen / ThermoFisher SelectScreen
Experimental: as §1, §2

CK1_gamma1 = molecular target: T21, CK1_gamma1 (Homo sapiens, UniProt Q9HCP0)
T21 construct: purchased Invitrogen / ThermoFisher SelectScreen
Experimental: as §1, §2

MuSK = molecular target: T22, MuSK (Homo sapiens, UniProt O15146)
T22 construct: purchased Invitrogen / ThermoFisher SelectScreen
T22 sequence (O15146 24-869): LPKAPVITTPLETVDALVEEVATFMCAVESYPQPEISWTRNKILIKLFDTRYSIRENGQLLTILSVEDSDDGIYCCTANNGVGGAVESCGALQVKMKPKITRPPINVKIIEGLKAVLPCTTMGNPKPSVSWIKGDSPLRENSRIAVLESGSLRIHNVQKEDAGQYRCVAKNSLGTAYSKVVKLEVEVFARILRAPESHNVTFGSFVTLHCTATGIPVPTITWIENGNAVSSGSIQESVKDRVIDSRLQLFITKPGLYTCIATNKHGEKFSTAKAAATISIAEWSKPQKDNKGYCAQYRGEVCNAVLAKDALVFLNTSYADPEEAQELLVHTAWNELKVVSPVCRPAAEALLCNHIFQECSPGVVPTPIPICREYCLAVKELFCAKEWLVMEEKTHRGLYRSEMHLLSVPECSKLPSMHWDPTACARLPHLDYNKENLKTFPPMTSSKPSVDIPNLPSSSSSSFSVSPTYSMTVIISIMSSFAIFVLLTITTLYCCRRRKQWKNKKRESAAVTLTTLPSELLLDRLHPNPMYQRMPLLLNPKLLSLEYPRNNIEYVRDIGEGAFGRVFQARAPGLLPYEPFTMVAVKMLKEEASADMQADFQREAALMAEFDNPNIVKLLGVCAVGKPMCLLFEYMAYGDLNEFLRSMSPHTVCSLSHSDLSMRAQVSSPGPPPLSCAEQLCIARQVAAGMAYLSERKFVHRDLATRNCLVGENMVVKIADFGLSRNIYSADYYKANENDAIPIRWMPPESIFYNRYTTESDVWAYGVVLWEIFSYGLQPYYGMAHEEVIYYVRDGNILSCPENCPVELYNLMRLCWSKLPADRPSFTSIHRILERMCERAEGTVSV
Experimental: as §1, §2

Met = molecular target: T23, Met (Homo sapiens, UniProt P08581)
T23 construct: purchased Invitrogen / ThermoFisher SelectScreen
Experimental: as §1, §2

Lck = molecular target: T24, Lck (Homo sapiens, UniProt P06239)
T24 construct: purchased Invitrogen / ThermoFisher SelectScreen
T24 sequence (P06239 whole entry): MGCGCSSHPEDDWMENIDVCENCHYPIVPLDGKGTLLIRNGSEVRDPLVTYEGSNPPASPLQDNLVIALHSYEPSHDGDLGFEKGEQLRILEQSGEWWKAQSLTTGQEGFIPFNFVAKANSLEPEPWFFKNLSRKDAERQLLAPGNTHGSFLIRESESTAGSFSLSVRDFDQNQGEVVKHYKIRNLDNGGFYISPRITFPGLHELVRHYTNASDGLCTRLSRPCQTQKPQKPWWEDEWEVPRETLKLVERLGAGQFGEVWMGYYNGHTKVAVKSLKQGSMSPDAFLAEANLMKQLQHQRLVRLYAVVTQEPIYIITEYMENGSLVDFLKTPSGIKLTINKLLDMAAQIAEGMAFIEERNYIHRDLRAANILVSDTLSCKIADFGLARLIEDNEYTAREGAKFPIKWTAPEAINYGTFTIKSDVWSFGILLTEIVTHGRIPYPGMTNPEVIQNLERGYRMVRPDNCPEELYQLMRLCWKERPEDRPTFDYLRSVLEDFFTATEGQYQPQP
Experimental: as §1, §2

HIPK4 = molecular target: T25, HIPK4 (Homo sapiens, UniProt Q8NE63)
T25 construct: purchased Invitrogen / ThermoFisher SelectScreen
T25 sequence (Q8NE63 whole entry): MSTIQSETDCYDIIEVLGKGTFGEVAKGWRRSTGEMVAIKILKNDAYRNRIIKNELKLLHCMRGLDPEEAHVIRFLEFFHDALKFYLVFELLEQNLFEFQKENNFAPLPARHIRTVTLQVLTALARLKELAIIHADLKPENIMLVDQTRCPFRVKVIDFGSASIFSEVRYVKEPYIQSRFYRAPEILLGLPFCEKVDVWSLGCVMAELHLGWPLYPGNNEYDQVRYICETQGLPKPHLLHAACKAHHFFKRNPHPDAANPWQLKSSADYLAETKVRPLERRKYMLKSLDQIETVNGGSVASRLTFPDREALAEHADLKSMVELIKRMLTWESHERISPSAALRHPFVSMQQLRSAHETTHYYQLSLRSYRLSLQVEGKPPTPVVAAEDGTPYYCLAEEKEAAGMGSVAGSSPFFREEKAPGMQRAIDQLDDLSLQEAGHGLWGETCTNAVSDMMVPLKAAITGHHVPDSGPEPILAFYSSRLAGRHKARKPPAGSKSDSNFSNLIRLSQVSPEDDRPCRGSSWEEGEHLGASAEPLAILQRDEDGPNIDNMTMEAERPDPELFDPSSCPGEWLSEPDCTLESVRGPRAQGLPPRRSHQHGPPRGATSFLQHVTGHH
Experimental: as §1, §2

EGFR = molecular target: T26, EGFR (Homo sapiens, UniProt P00533)
T26 construct: purchased Invitrogen / ThermoFisher SelectScreen
Experimental: as §1, §2

MST3 = molecular target: T27, MST3 (Homo sapiens, UniProt Q9Y6E0)
T27 construct: purchased Invitrogen / ThermoFisher SelectScreen
T27 sequence (Q9Y6E0 whole entry): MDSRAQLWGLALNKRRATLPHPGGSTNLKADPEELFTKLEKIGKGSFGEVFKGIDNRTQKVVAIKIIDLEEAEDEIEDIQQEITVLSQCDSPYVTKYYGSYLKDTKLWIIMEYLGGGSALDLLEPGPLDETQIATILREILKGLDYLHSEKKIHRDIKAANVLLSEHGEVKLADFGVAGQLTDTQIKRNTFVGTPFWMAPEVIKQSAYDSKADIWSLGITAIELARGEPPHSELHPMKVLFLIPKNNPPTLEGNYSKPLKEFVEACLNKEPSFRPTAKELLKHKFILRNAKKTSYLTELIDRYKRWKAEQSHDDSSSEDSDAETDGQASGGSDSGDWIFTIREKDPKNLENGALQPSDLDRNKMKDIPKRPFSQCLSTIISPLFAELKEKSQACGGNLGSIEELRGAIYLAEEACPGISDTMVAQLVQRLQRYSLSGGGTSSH
Experimental: as §1, §2

YSK1 = molecular target: T28, YSK1 (Homo sapiens, UniProt O00506)
T28 construct: purchased Invitrogen / ThermoFisher SelectScreen
Experimental: as §1, §2

LTK = molecular target: T29, LTK (Homo sapiens, UniProt P29376)
T29 construct: purchased Invitrogen / ThermoFisher SelectScreen
Experimental: as §1, §2

JAK3 = molecular target: T30, JAK3 (Homo sapiens, UniProt P52333)
T30 construct: purchased Invitrogen / ThermoFisher SelectScreen
Experimental: as §1, §2

CaMKI_delta = molecular target: T31, CaMKI_delta (Homo sapiens, UniProt Q8IU85)
T31 construct: purchased Invitrogen / ThermoFisher SelectScreen
Experimental: as §1, §2

IKK_epsilon = molecular target: T32, IKK_epsilon (Homo sapiens, UniProt Q14164)
T32 construct: purchased Invitrogen / ThermoFisher SelectScreen
Experimental: as §1, §2

T1 sequence (Q13131 whole entry): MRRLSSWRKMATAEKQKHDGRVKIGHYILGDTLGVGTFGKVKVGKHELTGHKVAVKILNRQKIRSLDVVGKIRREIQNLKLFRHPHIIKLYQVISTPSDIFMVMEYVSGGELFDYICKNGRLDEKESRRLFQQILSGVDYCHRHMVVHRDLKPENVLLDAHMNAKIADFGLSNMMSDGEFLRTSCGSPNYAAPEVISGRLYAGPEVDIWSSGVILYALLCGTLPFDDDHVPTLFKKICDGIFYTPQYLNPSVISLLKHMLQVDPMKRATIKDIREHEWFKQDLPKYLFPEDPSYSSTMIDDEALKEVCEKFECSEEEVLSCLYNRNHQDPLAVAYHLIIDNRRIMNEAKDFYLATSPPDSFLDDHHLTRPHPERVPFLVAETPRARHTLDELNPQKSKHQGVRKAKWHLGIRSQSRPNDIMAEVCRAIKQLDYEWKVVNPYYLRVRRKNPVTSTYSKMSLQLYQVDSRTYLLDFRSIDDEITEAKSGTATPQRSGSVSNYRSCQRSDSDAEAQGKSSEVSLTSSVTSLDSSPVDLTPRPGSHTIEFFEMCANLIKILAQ
T1 sequence (Q9Y478 whole entry partner): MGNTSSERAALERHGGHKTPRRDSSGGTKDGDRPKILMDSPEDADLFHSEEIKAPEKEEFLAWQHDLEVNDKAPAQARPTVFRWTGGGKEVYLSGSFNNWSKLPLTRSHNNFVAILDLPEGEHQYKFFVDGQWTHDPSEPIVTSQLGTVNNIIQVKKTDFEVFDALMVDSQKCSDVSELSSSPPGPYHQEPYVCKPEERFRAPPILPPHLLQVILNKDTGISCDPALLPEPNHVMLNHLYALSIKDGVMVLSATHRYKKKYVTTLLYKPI
T1 sequence (P54619 whole entry partner): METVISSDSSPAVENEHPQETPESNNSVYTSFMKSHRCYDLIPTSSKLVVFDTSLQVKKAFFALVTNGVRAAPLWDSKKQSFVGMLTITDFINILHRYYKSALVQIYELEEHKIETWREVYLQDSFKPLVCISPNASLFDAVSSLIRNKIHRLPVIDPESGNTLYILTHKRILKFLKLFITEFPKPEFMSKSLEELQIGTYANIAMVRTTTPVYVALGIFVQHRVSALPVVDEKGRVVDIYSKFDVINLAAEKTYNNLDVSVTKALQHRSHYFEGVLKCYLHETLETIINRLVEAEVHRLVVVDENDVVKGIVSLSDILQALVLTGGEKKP

Structure (SMILES): COc1cc(C(N)=O)nc(-c2cccc(C#C[C@]3(O)CCN(C)C3=O)c2)c1 [NIK SMI1]
- inhibition at 1 µM (PRKAA1): 20.5%
- inhibition at 1 µM (AKT1): 28.5%
- inhibition at 1 µM (Fgr): 8%
- inhibition at 1 µM (p38_alpha): -7.5%
- inhibition at 1 µM (ERK2): 5.5%
- inhibition at 1 µM (SPHK1): 21.3%
- inhibition at 1 µM (DYRK3): 1.5%
- inhibition at 1 µM (MARK1): 16%
- inhibition at 1 µM (CamKIV): 14.5%
- inhibition at 1 µM (PAK1): 9%
- inhibition at 1 µM (PAK3): -3.5%
- inhibition at 1 µM (PDK1): -0.5%
- inhibition at 1 µM (Syk): -0.5%
- inhibition at 1 µM (CDK2/CyclinA): -1.5%
- inhibition at 1 µM (Src): -1.5%
- inhibition at 1 µM (Lyn): 2.5%
- inhibition at 1 µM (EphB1): 7%
- inhibition at 1 µM (Ret): 2%
- inhibition at 1 µM (TBK1): 26.5%
- inhibition at 1 µM (GRK2): 4.5%
- inhibition at 1 µM (CK1_gamma1): 2.5%
- inhibition at 1 µM (MuSK): 6%
- inhibition at 1 µM (Met): 0%
- inhibition at 1 µM (Lck): 0.5%
- inhibition at 1 µM (HIPK4): 3%
- inhibition at 1 µM (EGFR): -11.5%
- inhibition at 1 µM (MST3): 32.5%
- inhibition at 1 µM (YSK1): 39%
- inhibition at 1 µM (LTK): -1%
- inhibition at 1 µM (JAK3): 15%
- inhibition at 1 µM (CaMKI_delta): 15%
- inhibition at 1 µM (IKK_epsilon): 19%

Source: publication PMC5766581, “NF-κB inducing kinase is a therapeutic target for systemic lupus erythematosus” (Nature Communications, 2018)
